Assay results reported in article PMC4728427, “Mechanism of allosteric activation of TMEM16A/ANO1 channels by a commonly used chloride channel blocker” (British Journal of Pharmacology, 2016).

Columns and labels:
Type in all cases: cell-based
Mouse TMEM16A [1] = biological target: T1, Mouse TMEM16A (Mus musculus, UniProt Q8BHY3); assay: Concentration jump in excised inside-out or outside-out patches, 300 nM [Ca2+]i; conditions: +70 mV
T1 construct: expressed in transfected cells; host or cells: HEK-293T
T1 sequence (Q8BHY3 1-960): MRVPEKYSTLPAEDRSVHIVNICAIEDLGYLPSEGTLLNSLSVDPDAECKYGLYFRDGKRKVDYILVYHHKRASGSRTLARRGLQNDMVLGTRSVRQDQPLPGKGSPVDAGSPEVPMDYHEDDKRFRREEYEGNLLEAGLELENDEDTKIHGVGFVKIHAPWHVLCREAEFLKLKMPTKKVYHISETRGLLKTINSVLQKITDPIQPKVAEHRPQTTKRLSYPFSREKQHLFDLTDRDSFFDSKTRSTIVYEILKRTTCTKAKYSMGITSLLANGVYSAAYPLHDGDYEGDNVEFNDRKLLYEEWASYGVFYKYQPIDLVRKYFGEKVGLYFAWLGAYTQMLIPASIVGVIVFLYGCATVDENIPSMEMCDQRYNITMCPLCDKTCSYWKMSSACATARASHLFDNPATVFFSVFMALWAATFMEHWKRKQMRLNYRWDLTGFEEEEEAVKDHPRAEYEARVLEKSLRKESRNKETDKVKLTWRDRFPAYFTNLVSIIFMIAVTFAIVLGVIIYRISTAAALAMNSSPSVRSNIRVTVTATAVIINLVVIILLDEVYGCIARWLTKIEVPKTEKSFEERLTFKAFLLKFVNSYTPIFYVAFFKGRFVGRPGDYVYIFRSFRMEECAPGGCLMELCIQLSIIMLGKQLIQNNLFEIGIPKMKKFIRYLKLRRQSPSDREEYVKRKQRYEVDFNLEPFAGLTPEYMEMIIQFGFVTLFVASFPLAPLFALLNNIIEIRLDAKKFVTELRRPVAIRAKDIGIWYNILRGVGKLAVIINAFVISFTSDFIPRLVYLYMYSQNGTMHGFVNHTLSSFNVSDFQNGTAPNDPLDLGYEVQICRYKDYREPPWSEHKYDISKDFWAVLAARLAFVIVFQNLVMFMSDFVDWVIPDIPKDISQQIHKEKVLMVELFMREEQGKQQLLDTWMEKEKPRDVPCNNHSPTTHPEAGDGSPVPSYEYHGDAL
Method: TMEM16A currents were measured with the whole‐cell or inside‐out patch configuration of the patch‐clamp technique as detailed in the Supporting Information. The exchange of solutions was achieved by using a local perfusion system consisting of eight tubes of 1.2 mm diameter in which the tip of the patch pipette was inserted. In some experiments, ultra‐rapid (<50 ms) changes in A9C concentration ([A9C]) (‘concentration jumps’) were achieved using a computer‐controlled perfusion system (Warner Instruments, Hamden, CT, USA).
To examine if intracellular A9C produced an activating effect on TMEM16A currents, concentration jump experiments were performed in the inside‐out configuration of the patch‐clamp technique, with A9C applied intracellularly and in the presence of 300 nM [Ca^2+]i. […] For example, I a/I 0 in the presence of 3000 μM intracellular A9C during inside‐out patches was 1.3 ± 0.1 (n = 5), while extracellular A9C produced a I a/I 0 of 27 ± 4 (n = 5) in outside‐out patches (Figure 6).

Mouse TMEM16A [2] = biological target: T1, Mouse TMEM16A; assay: Steady-state activation curve (conductance versus Vm, Boltzmann fit)
Method: The voltage‐dependence of TMEM16A channels was assessed by constructing conductance (G) versus V m relationships in the presence of various [Ca^2+]i. A 1 s pre‐pulse applied to different V m (from −100 to +180 mV in 40 mV increments) was followed by a 0.5 s tail pulse to −60 mV. These pulses were elicited every 2 s from a holding V m of 0 mV. Tail currents were fitted with a single exponential function and the instantaneous tail current amplitude (I tail) estimated from extrapolation of the fit to the beginning of the tail pulse. G was calculated as G = I tail/(V m − E Cl), and normalized G (G/G max) was plotted against the V m of the pre‐pulse. The G versus V m relationships were fitted with the Boltzmann equation of the following form: (5) G/Gmax=1/1+expzgV0.5−VF/RT,
where z g is the number of gating charges moving through the applied transmembrane electric field during channel activation, and V 0.5 is the voltage at which the G is half‐maximal and depends on the conformational energy required for the channel to open.
To examine the possible effects of A9C on TMEM16A channel [Ca^2+]i‐sensitivity, the conductance versus V m relationships were assessed at various [Ca^2+]i in the absence or presence of various [A9C]ext (Figure 10 and Table 3). In the absence of extracellular A9C, V 0.5 (derived from fit with Equation (5)) shifted progressively to lower values as the [Ca^2+]i was increased from 300 to 1000 nM (Table 3). Extracellular A9C dramatically shifted the steady‐state activation curves to the left (Figure 10 and Table 3) to a similar extent for all [Ca^2+]i tested.

[3] = test system: non‐transfected HEK‐293T cells; assay: Whole-cell endogenous currents in non-transfected cells with extracellular A9C; conditions: +100 mV, 3000 μM [A9C]ext; without A9C 3.6 ± 0.8
Method: Current versus V m relationships were constructed by measuring currents in response to 1 s V m steps (test pulses) from −100 to +100 mV in 40 mV increments (unless stated otherwise) after a 1 s V m step to +70 mV (pre‐pulse). Pulses were elicited every 2 s from a holding V m of 0 mV. Steady‐state currents were measured at the end of the test pulses. As detailed in the Results, in the presence of 300 nM [Ca^2+]i and extracellular A9C, the test‐pulse currents reached a peak within the first ~50 ms of the test pulse. These peak currents were also measured and plotted against the V m of the test pulse. Current density was obtained by dividing the current amplitude for the cell capacitance.
To test the possibility that A9C activated endogenous currents in HEK‐293T cells, the effect of [A9C]ext (3000 μM) on non‐transfected cells was assessed. No significant increase in current was observed relative to the small endogenous currents measured in non‐transfected cells in the absence of [A9C]ext (Figure 1A). For example, at +100 mV, the current recorded from non‐transfected HEK‐293T cells in the absence and presence of 3000 μM [A9C]ext was 3.6 ± 0.8 pA∙pF^−1 (n = 6) and 3.7 ± 0.7 pA∙pF^−1 (n = 6) respectively.

[4] = ~300 nM [Ca2+]i, 300 μM [A9C]ext
[5] = ~300 nM [Ca2+]i, 1000 μM [A9C]ext
[6] = ~600 nM [Ca2+]i, 300 μM [A9C]ext
[7] = ~600 nM [Ca2+]i, 1000 μM [A9C]ext
[8] = ~1000 nM [Ca2+]i, 300 μM [A9C]ext
[9] = ~1000 nM [Ca2+]i, 1000 μM [A9C]ext

For O=C(O)c1c2ccccc2cc2ccccc12 [A9C, Anthracene‐9‐carboxylic acid], the “I a/I 0 (current activation)” value (Mouse TMEM16A [1]; 3000 μM extracellular A9C, outside-out patches) was 27 ± 4, the “I a/I 0 (current activation)” value (Mouse TMEM16A [1]; 3000 μM intracellular A9C, inside-out patches) was 1.3 ± 0.1 and the “V 0.5 (Boltzmann fit)” value (Mouse TMEM16A [2]; [4]) was 124 ± 9 (n = 8) mV. For the same compound, the “z g (Boltzmann fit)” value (Mouse TMEM16A [2]; [4]) was 0.7 ± 0.1 (n = 8), the “V 0.5 (Boltzmann fit)” value (Mouse TMEM16A [2]; [5]) was 89 ± 7 (n = 14) mV and the “z g (Boltzmann fit)” value (Mouse TMEM16A [2]; [5]) was 0.7 ± 0.1 (n = 14). The “V 0.5 (Boltzmann fit)” value (Mouse TMEM16A [2]; [6]) was 45 ± 4 (n = 8) mV, the “z g (Boltzmann fit)” value (Mouse TMEM16A [2]; [6]) was 0.7 ± 0.1 (n = 8) and the “V 0.5 (Boltzmann fit)” value (Mouse TMEM16A [2]; [7]) was 18 ± 4 (n = 14) mV. For the same compound, the “z g (Boltzmann fit)” value (Mouse TMEM16A [2]; [7]) was 0.7 ± 0.1 (n = 14), the “V 0.5 (Boltzmann fit)” value (Mouse TMEM16A [2]; [8]) was −15 ± 8 (n = 5) mV and the “z g (Boltzmann fit)” value (Mouse TMEM16A [2]; [8]) was 0.9 ± 0.1 (n = 5). For the same compound, the “V 0.5 (Boltzmann fit)” value (Mouse TMEM16A [2]; [9]) was −22 ± 6 (n = 9) mV, the “z g (Boltzmann fit)” value (Mouse TMEM16A [2]; [9]) was 0.9 ± 0.1 (n = 9) and the “current density in non-transfected HEK-293T cells” value [3] was 3.7 ± 0.7 pA∙pF^−1.
